Measured values published in US20220054520A1, “OPHTHALMIC COMPOSITION CONTAINING DIQUAFOSOL OR SALT THEREOF, VINYL-BASED POLYMER AND CELLULOSE-BASED POLYMER” (SANTEN PHARMACEUTICAL CO., LTD., priority 2019, published 2022).

Tested on: rat dorsal root ganglion neurons
Assay: Stimulativeness of diquafosol sodium to peripheral nerves, intracellular calcium fluorescence (FLIPR Calcium 6)
Type: cell-based
Description: The stimulativeness of diquafosol sodium to peripheral nerves in the coexistence of PVP was examined.
Cultured peripheral nerve cells (rat dorsal root ganglion neurons, purchased from Lonza Japan Ltd.) were incubated in a buffer solution (FLIPR Calcium 6 Assay Kit, Molecular Devices, LLC.) including intracellular fluorescent calcium indicator dyes. 40% of the total buffer solution was replaced with each of the aforementioned formulation solutions. The non-stimulation group and the stimulated control group were treated with the buffer solutions instead of the formulation solutions in the same manner. After allowing to stand at room temperature, the fluorescence measurement of the calcium indicator dyes with an elapse of time was started by using a fluorescent plate reader. Diquafosol sodium (final concentration: 0.3%) was added after 60 seconds from the start, and the measurement of fluorescence intensity was continued.
The maximum fluorescence intensity (RFUmax) after addition of diquafosol sodium was calculated relative to the fluorescence intensity (RFU) immediately before the addition as 100%.

O=c1ccn([C@@H]2O[C@H](COP(=O)([O-])OP(=O)([O-])OP(=O)([O-])OP(=O)([O-])OC[C@H]3O[C@@H](n4ccc(=O)[nH]c4=O)[C@H](O)[C@@H]3O)[C@@H](O)[C@H]2O)c(=O)[nH]1.[Na+].[Na+].[Na+].[Na+] [diquafosol sodium, diquafosol tetrasodium salt]
fluorescence intensity / signal of intracellular calcium ions after addition of diquafosol sodium (in words) (peripheral nerve cells exposed to diquafosol sodium 0.3%, with or without formulation solution): rapidly increased
maximum fluorescence intensity (RFUmax) after addition of diquafosol sodium (stimulated control group: buffer solution instead of formulation solution, diquafosol sodium final concentration 0.3%, RFU before addition as 100%): ≥ 103.5%
